Assay results: patent US7341726B2, “Modified HCV peptide immunogens” (The United States of America as represented by the …, priority 1998, dated 2008)
“Also recorded” adds a separate entry of the source.

Assays:
HLA-A2.1 = biological target: T1, HLA-A2.1 (Homo sapiens, UniProt P04439, D140Y/D185E/D98H/E176V/E277Q/G131W/G231S/I119V/I121R/I166T/I218V/L300P/L318F/N151K/N90K/P208A/P217A/Q86G/Q94H/R138H/R169H/T345S); test: T2 binding assay: peptide stabilisation of cell-surface HLA-A2.1 (flow cytometry, BB7.2); details: T2 cells; for FI0.5, the peptide concentration that increases HLA-A2.1 expression by 50% over no peptide control: overnight, with β2-microglobulin
T1 construct: The T2 cell line is deficient in TAP1 and TAP2 transporter proteins and expresses low levels of HLA-A2.1; endogenous in cells; host or cells: T2 cell line (TAP1/TAP2-deficient)
Procedure: FIGS. 1A and 1B. Binding of C7A2 Alanine (A) and non-Alanine (B)-substituted peptides to TAP-deficient HLA-A2.1. T2 cells were incubated overnight in a 96 well plate in CTM with 10 Φg/ml human β2-microglobulin and different peptide concentrations. The next day, cells were washed and HLA-A2.1 expression was assessed by flow cytometry using the anti HLA-A2 BB7.2 monoclonal antibody and FITC labeled goat anti mouse Ig. Results are expressed as fluorescence index (FI), calculated according to the formula: (mean fluorescence with peptide−mean fluorescence without peptide)/mean fluorescence without peptide. Background fluorescence without BB7.2 was subtracted for each individual value. FI0.5 represents those peptide concentrations that increase HLA-A2.1 expression by 50% over the no peptide control and were calculated from the titration curves for each particular peptide.
Peptide binding to HLA molecules was measured using the T2 mutant cell line according to a protocol previously described (53). T2 cells (3×10/well) were incubated overnight in 96-well plates with culture medium (1:1 mixture of RPMI 1640: EHAA containing 2.5% FBS, 100 U/ml penicillin, 100 Φg/ml streptomycin) with 10 Φg/ml β2-microglobulin (Sigma Chemical Co; St. Louis, Mo.) and different peptide concentrations. The next day, cells were washed twice with cold PBS containing 2% FBS and incubated for 30 min at 4 EC with anti HLA-A2.1 BB7.2 monoclonal antibody (1/80 dilution from hybridoma supernatant) and 5 Φg/ml FITC-labeled goat anti mouse Ig (Pharmingen; San Diego, Calif.). Cells were washed twice after each incubation and HLA-A2.1 expression was measured by flow cytometry on a FACScan (Becton Dickinson). HLA-A2.1 expression was quantified as fluorescence index (FI) according to the formula: FI=(mean fluorescence with peptide—mean fluorescence without peptide)/mean fluorescence without peptide. Background fluorescence without BB7.2 antibody was subtracted for each individual value. In order to compare the different peptides, FI0.5, the peptide concentration that increases HLA-A2.1 expression by 50% over no peptide control background, was calculated from the titration curve for each peptide.
The binding affinity of wild-type C7A2 peptide (C7A2-WT) was evaluated with a T2 binding assay (53), which measures the cell surface stabilization of HLA-A2.1 molecules after incubation with peptide. In order to compare the different peptides, a fluorescence index value of 0.5 (FI0.5), the peptide concentration that increases HLA-A2.1 expression by 50%, was chosen as a way to compare titrations of the peptides and relative affinity for MHC molecules. Using this method, FI0.5 of 10 ΦM was calculated for C7A2-WT.

human CTL line ViT2 = test: Recognition of C7A2-variant peptides by human CTL line ViT2 (51Cr release, C1R.A2.1 targets); type: cell-based; details: for Recognition by human CTL line (lysis of peptide-sensitized target cells): E/T 5/1, peptide titration
[1] = system: transgenic AAD mouse CTL lines AAD.10 and AAD.1; test: Recognition of C7A2-variant peptides by AAD transgenic mouse CTL lines (51Cr release, C1R.AAD targets); type: cell-based; details: lines AAD.10 and AAD.1, C1R.AAD targets, E/T 10/1
AAD transgenic mice [2] = test: In vivo immunogenicity of C7A2-derived peptides in AAD transgenic mice (CTL assay); set-up: species or system mouse; details: 50 nmol CTL epitope plus helper epitope, GM-CSF, IL-12 in IFA; targets pulsed with immunizing peptide
AAD transgenic mice [3] = test: Induction of CTL immune response against C7A2-WT in AAD transgenic mice; type: in vivo, mouse; details: 50 or 15 nmol CTL epitope; for CTL response to C7A2-WT after immunization: targets pulsed with C7A2-WT
From the text: FIGS. 5A and 5B. […] Two weeks later, mice were boosted under the same conditions and 10-14 days after the boost, spleen cells were removed and stimulated in vitro with 10 ΦM CTL peptide-pulsed spleen cells.

A2Kb transgenic mice [4] = test: Induction of CTL immune response against C7A2-WT in A2Kb transgenic mice; type: in vivo, mouse; details: 50 nmol, E/T 120:1 for C7A2-WT, 70:1 for 8A
From the text: FIG. 6. […] Two weeks later, mice were boosted under the same conditions and 10-14 days after the boost, spleen cells were removed and stimulated in vitro with 10 ΦM CTL peptide-pulsed spleen cells.

[5] = system: short term CTL lines from AAD transgenic mice; details: C1R.AAD targets titrated with C7A2-WT, E:T 10:1
From the text: FIG. 7. […] Two weeks later, mice were boosted under the same conditions and 10-14 days after the boost, spleen cells were removed and stimulated in vitro with 10 ΦM CTL peptide-pulsed spleen cells.

A2Kb transgenic mice [6] = details: 50 nmol, targets with 10 ΦM peptide
Procedure: (§1) FIGS. 8A and 8B. […] AAD (A) and A2Kb (B) transgenic mice were immunized with 50 nmol CTL epitope 8A plus 50 nmol HBVc 128-140 helper epitope in IFA. Two weeks later, mice were boosted under the same conditions and 10-14 days after the boost, spleen cells were removed and stimulated in vitro with 10 ΦM CTL peptide-pulsed spleen cells. After two weeks of in vitro stimulation, a CTL assay was performed with target cells (Con A blasts) incubated with the different peptides at 10 ΦM.
(§2) This peptide is common in viral isolates from HCV genotypes 2a and 2b (56,57).

AAD transgenic mice [7] = details: 50 nmol, targets with 10 ΦM peptide
Procedure: as §1, §2

Substance | FI0.5, the peptide concentration that increases HLA-A2.1 expression by 50% over no peptide control (HLA-A2.1) | Recognition by human CTL line (lysis of peptide-sensitized target cells) (human CTL line ViT2) | Recognition by AAD mouse CTL lines (sensitization of target cells) [1] | Binding to HLA-A2.1 (in words, compared with C7A2-WT) (HLA-A2.1) | Titration concentration relative to C7A2-WT (human CTL line ViT2; human CTL line) [fold lower concentrations] | Induction of CTL response by immunization (AAD transgenic mice [2]) | CTL response to 8A after immunization (AAD transgenic mice [3]; targets pulsed with 8A) | CTL response to C7A2-WT after immunization (AAD transgenic mice [3]) | CTL immune response after immunization (A2Kb transgenic mice [4]) | C7A2-WT concentration for comparable killing, CTL raised against 8A versus CTL raised against C7A2-WT [5] | Cross-recognition of peptide 8V by CTL induced by immunization (A2Kb transgenic mice [6]) | Cross-recognition of peptide 8V by CTL induced by immunization (AAD transgenic mice [7])
8V: C7A2 peptide with position 8 L replaced by V; sequence common in HCV genotypes 2a and 2b (DLMGYIPVV) [Peptide 8V, reference compound] | 15 ΦM | behaved similarly to C7A2-WT | recognized at higher concentrations than determined for C7A2-WT | – | – | – | – | – | – | – | – | –
DLMGYIPAV [Peptide 8A] | around 2 ΦM | higher levels of lysis than C7A2-WT | able to sensitize target cells in a concentration range around that of C7A2-WT | higher affinity; also recorded: bind at lower concentrations than C7A2-WT | 10 | able to induce clear CTL responses; also recorded: induced higher levels of lysis | positive responses to 8A itself | strong responses to C7A2-WT | higher level of response | more than 100 fold lower | recognize peptide 8V | recognize peptide 8V
DLMGYIPLV [Peptide C7A2-WT, naturally occurring peptide at positions 132-140 in the HCV core polypeptide, reference compound] | 10 ΦM | – | – | – | – | able to induce clear CTL responses | – | two of the four animals | low response | – | – | –
